How the values were obtained:
HTT mRNA = experiment: RT-qPCR of HTT mRNA in HD patient B lymphocytes (GM04856); type: cell-based, human
Procedure: B lymphocytes (GM04856 cells) were plated in 6-well plates at 5×10^5 cells/well in 2 mL of 10% FBS, DMEM and incubated for 6 hours (37° C., 5% CO2, 100% relative humidity). Cells were then treated with HTT-C1 at 125 nM (in 0.5% DMSO) in triplicate for 24 hours. RNA was purified with the RNeasy Mini Kit (Qiagen) according to the manufacturer's protocol. Samples were prepared for RT-PCR (described previously) using 0.04 μL of each primer (at 100 μM). For reverse transcription and PCR, the following steps were performed: RT step: 48° C. (15 min); PCR steps: Step 1: 95° C. (10 min), Step 2: 95° C. (30 sec), Step 3: 55° C. (30 sec), Step 4: 68° C. (1 min); Steps 2 to 4 were repeated for 34 cycles, then held at 4° C. PCR products were separated on 2% agarose E-gels, stained with ethidium bromide and visualized using a UVP gel imager.
To test if the small molecule-induced spliced transcripts are unstable due to nonsense-mediated decay (NMD), GM04856 lymphoblast cells were treated with cycloheximide (CHX). First cells were treated with DMSO or 250 nM HTT-C1 for 18 h. DMSO or 10 uM CHX was then added, and cells harvested for RNAs after 2 h, 4 h, and 8 h.

HTT pre-mRNA intron 49 = experiment: Ampliseq Junction Expression Index (JEI) of HTT introns in GM04856 cells; type: cell-based, human; conditions: 125 nM, 24 h, vs DMSO, P<0.05
Procedure: Targeted next-generation sequencing Novel splicing events originating from HTT pre-mRNA upon compound treatment were further analyzed using AmpliSeq technology. The GM04856 cells were plated in 6-well plates at 500,000 cells/well in 2000 μl DMEM/10% FBS and incubated for 6 hours in a cell culture incubator (37° C., 5% CO2, 100% relative humidity). Cells were then treated in triplicate with HTT-C1 at 125 nM (in 0.5% DMSO) for 24 hours. Following treatment, RNA was purified using an RNeasy Mini Kit (Qiagen) according to the manufacturer's protocol. Novel splice variants induced by the HTT-C1 compound were detected using Ion AmpliSeq technology (Life Technologies), a PCR-based target enrichment and next-generation sequencing platform. PCR enrichment of HTT exon targets was accomplished by applying a custom HTT AmpliSeq panel. The panel consisted of two separate PCR primer pools, each producing 33 amplicons. […]
For data analysis, Ampliseq reads (Fastq format) were mapped to human genome (hg19) using tophat2 which allowed identification of both known and novel splice junctions. For each one of the 66 introns of HTT gene, a Junction Expression Index (JEI) was calculated using the percent of reads supporting the splicing of the exact annotated intron among all reads supporting the splicing isoforms using either the 5′ splice or/and 3′ splice site of that intron (FIG. 3B). […]

mouse HTT protein = experiment: Mouse HTT protein expression under compound treatment; type: cell-based; conditions: at concentrations that reduce human HTT protein expression
SH-SY5Y cells = experiment: RNA-seq analysis of transcriptome and splicing changes in SH-SY5Y cells; type: cell-based, human; conditions: for splicing events altered: 24 h
Procedure: SHY5Y cells were seeded in 6-well plates at 6×10^5 cells/well in 2 mL 10% FBS, DMEM and incubated for 4 hours. Cells were then treated with two biological replicates of HTT-C1 at 24 nM or 100 nM (in 0.1% DMSO), or four biological replicates of vehicle control (DMSO) for 24 hours (37° C., 5% CO2, 100% relative humidity). HEK293 cells transfected with U1 snRNA minigene constructs treated with either duplicates of 1 μM HTT-C1 or 0.5% DMSO control and incubated for 48 hours (37° C., 5% CO2, 100% relative humidity).
For library preparation and sequencing, mRNA was enriched from about 3 μg of total RNA using oligo(dT) beads (ThermoFisher Scientific). The mRNA was fragmented randomly using fragmentation buffer followed by cDNA synthesis using the mRNA template and random hexamers primer. Second-strand synthesis buffer (Illumina), deoxynucleotides, ribonuclease H and DNA polymerase I were added to initiate second-strand synthesis. After a series of terminal repair, A-ligation and sequencing adaptor ligation, the double-stranded cDNA library was size selected and enriched by PCR. RNA libraries were sequenced in a HiSeq sequencer (Illumina).
RNA sequencing reads were mapped to human genome (hg19) using Spliced Transcripts Alignment to a Reference (STAR) software (version 2.5) (Dobin et L., (2013) Bioinformatics 1; 29(1):15-21). Uniquely mapped reads (with MAPQ>10) having <5 nt/100 nt mismatches were used for analysis.
For gene expression analysis, the number of reads in a coding sequence (CDS) region of protein-coding genes and exonic regions of non-coding genes were counted and analyzed using DESeq2 (Love et al., (2014) Genome Biology, 15:550). For splicing analysis, reads were counted for different exons or exonic regions. For each exon, a Percent-Spliced-In (PSI) value was calculated using the percent of average read number supporting the inclusion of the exon (include both the upstream and downstream junctions) among all reads supporting either the inclusion or the exclusion of an exon. A minimal of 20 for the denominator of PSI calculation was required. Otherwise a “NA” value would be generated. PSI values for biological replicates were averaged and the PSI difference between two treatment groups was calculated. For statistical test, a 2×2 read counts table was made for each exon with rows for reads supporting inclusion or exclusion and columns for the two comparing sample groups (biological replicates were combined). Fisher's Exact Test was used for statistical test. PSI change of >20% (or <−20%) and P-value <0.001 was used to select exons being regulated by the treatment.

Compound | reduction in HTT mRNA (RT-qPCR) (HTT mRNA; 250 nM, GM04856 lymphoblast cells, 18 h plus 2-8 h) | lowering of the amount of HTT mRNA as compared to the DMSO control (HTT mRNA; 24-hour treatment, 125 nM, B-lymphocytes from an HD patient) | reduction of junction expression index (JEI) in intron 49 (HTT pre-mRNA intron 49) | mouse HTT protein expression (mouse HTT protein) | UP cassette exons with no annotation for at least one splice site (SH-SY5Y cells; 24 nM) | expression of HTT (RNA-seq) (SH-SY5Y cells; 24 nM (~2x the IC50)) | splicing events altered (SH-SY5Y cells; 24 nM) | UP cassette exons with no annotation for at least one splice site (SH-SY5Y cells; 100 nM) | splicing events altered (SH-SY5Y cells; 100 nM) | pseudoexons activated (SH-SY5Y cells; FIG. 6D comparison with U1-GA variant) | pseudoexons induced (SH-SY5Y cells; at either concentration (24 nM or 100 nM))
CC1(C)CC(Oc2ccc(-c3ccc(-c4ccnc(O)c4)cc3O)nn2)CC(C)(C)N1 [HTT-C1] | ~80% | about 85% | > 25% | no effect |  |  |  |  |  |  | 
CC1(C)CC(Oc2ccc(-c3ccc(-c4cn[nH]c4)cc3O)nn2)CC(C)(C)N1 [HTT-C2] |  |  |  |  | 22% | selectively and potently downregulated expression of HTT | 165 | 44% | 215 | 27 | 31

Reference: patent publication US20220162610A1, “NOVEL RNA TRANSCRIPT” (PTC Therapeutics, Inc., priority 2020, published 2022)
